pIC50: −log10 of the molar value. Where two headings read alike, the source gives them in different places.
How the values were obtained:
Or47a/Or83b = target: T1, Or47a/Or83b (Drosophila melanogaster, UniProt P81921+Q9VNB5); experiment: Ca2+-imaging of stable Flip-In T-Rex cell line Or47a/Or83b; type: cell-based; conditions: for inhibition at 4 µM: compound applied at 4 μM, read-out: Percent Inhibition OR47a OR83b
T1 construct: Full-length cDNAs for mosquito (Anopheles gambiae) odorant receptor (OR1, OR2, OR7, OR8, OR28), and fly (Drosophila melanogaster) odorant receptor (Or47a, Or83b); expressed in transfected cells
T1 sequence (P81921 1-385): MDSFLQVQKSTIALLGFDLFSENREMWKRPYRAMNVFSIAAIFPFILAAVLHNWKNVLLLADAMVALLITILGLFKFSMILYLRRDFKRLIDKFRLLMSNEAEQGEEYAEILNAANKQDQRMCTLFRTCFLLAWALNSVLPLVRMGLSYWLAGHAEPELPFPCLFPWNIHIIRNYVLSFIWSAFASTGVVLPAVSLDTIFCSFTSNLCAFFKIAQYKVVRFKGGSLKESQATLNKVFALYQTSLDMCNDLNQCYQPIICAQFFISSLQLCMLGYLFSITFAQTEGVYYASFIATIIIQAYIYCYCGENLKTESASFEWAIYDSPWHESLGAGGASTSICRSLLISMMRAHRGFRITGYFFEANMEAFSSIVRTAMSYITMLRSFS
T1 sequence (Q9VNB5 1-486): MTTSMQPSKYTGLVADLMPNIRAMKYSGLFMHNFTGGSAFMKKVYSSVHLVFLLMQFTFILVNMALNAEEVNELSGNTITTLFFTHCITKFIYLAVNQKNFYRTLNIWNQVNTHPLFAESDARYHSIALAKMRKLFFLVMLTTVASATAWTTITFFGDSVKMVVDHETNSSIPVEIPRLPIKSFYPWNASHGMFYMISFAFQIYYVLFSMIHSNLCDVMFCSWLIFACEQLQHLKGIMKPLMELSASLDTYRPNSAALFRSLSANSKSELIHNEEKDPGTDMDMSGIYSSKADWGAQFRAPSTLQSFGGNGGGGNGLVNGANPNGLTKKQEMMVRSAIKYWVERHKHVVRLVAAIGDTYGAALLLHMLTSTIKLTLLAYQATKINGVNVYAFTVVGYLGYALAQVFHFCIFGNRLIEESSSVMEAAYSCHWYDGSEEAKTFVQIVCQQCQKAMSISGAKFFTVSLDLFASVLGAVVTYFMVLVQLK
Procedure: (§1) Full-length cDNAs for mosquito (Anopheles gambiae) odorant receptor (OR1, OR2, OR7, OR8, OR28), and fly (Drosophila melanogaster) odorant receptor (Or47a, Or83b), mouse TRP channel (TRPM8), and mouse serotonin receptor (5HT3) were obtained and subcloned into mammalian expression vectors. The following mammalian expression vectors were used:
(§2) Stable cell lines Or47a/Or83b and 5HT3 were generated from Flip-In T-Rex cells. Flip-In T-Rex-based cell lines were cultured in DMEM supplemented with these additional antibiotics: 6 μg/mL blasticidin and 100 μg/mL hygromycin.
(§3) Cells were trypsinized and split into 35 mm dishes 1 day before transfection. Confluent cells (60-70%) in 35 mm dishes were co-transfected with 1 μg of Or47a/Or83b plasmid in pcDNA5/FRT/TO/IRES plus the pOG44 plasmid or 1 μg of 5HT3 plasmid in pcDNA5/FRT/TO plus the pOG44 plasmid using lipofectamine 2000. Co-transfection of pOG44 and pcDNA5/FRT/TO/IRES or pcDNA5/FRT/TO allows expression of Flp recombinase and integration of the pcDNA5 plasmid into the genome via the FRT site. After one day of incubation, the transfected cells were transferred into 10 cm dishes with DMEM containing antibiotics: 20 μg/mL of hygromycin and 6 μg/mL of blasticidin. The concentration of Hygromycin was increased to 100 μg/mL when the population of cells became 30-40% confluent. The cells were cultured by changing medium every two days until cell clumps appeared. The clumps were picked and transferred into 96 well plates with DMEM containing 100 μg/mL of Hygromycin and 6 μg/mL of blasticidin. The cells were grown and transferred to 24 well plates, and ligand-evoked calcium increases were tested using the Hamamatsu FDSS6000 real time fluorescence plate reader.
(§4) Stable cell lines were cultured in 10 cm dishes, and confluent cells (70-80%) were trypsinized. 10,000 cells/20 μL were transferred into each well of 384-well plates coated with poly-D-lysine, and cultured for 2 days. For Flip-In T-Rex cells (cell lines expressing Or47a/Or83b and 5HT3), 5 μL of tetracycline (5 μg/mL) were added 1 day before the assay. 20 μL of Ca-4 dye was loaded into each well for 1.5 hr at room temperature in the dark, and the dye-loaded plates were subjected to Ca^2+-imaging using a Hamamatsu FDSS6000 real time fluorescence plate reader. Odorant solutions (9× final concentration) were prepared by dissolving 1M stock solutions into Hank's Buffered Salt Solution (HBSS), and 30 μL of odor solution was transferred to each well in 384-well plates.
(§5) Compounds ([…] in DMSO) were stored in 384-well plates, and last two columns (32 wells total) contained only DMSO. 200 nL of small compounds were transferred into the odorant plates before the assay using the Perkin-Elmer Janus workstation. The odorant plates were spun down to remove air bubbles, and placed on the FDSS6000 plate loader, and 5 μL of odorant solution was applied to the cell plate on the FDSS6000. Ca^2+ increase was monitored with fluorescence at 525 nm by excitation at 485 nm.

[1] = target: T2, serotonin receptor (5HT3) (Mus musculus, UniProt P23979); experiment: Ca2+-imaging of stable Flip-In T-Rex cell line 5HT3; type: cell-based; conditions: for inhibition at 4 µM: compound applied at 4 μM, read-out: Percent Inhibition 5HT3; for pIC50: read-out: IC50 5HT3
T2 construct: Full-length cDNAs for mosquito (Anopheles gambiae) odorant receptor; expressed in transfected cells
T2 sequence (P23979 24-489): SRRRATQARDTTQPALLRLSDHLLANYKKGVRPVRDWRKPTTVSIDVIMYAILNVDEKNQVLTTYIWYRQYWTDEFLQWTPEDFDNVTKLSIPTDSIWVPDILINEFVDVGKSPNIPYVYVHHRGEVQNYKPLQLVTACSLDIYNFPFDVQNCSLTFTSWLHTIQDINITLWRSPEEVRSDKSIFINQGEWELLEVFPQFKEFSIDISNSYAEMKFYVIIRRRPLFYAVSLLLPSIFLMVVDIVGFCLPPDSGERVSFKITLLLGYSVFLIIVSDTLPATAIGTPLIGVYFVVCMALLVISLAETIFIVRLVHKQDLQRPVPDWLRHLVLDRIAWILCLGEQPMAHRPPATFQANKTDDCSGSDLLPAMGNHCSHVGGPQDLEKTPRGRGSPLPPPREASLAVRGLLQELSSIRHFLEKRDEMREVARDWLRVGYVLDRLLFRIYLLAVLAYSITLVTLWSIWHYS
Procedure: as §1, §2, §3, §4, §5

[2] = ligand pentyl acetate 30 μM, read-out: IC50 OR47a OR83b

Compound | inhibition at 4 µM (Or47a/Or83b) [%] | inhibition at 4 µM [1] [%] | pIC50 (Or47a/Or83b; [2]) | pIC50 ([1]; ligand serotonin 10 μM) | pIC50 (Or47a/Or83b; Table B, read-out: IC50 OR47a) | pIC50 ([1]; Table B)
O=C(c1c(F)c(F)cc(F)c1F)N1CCOC(Cc2ccccc2)C1 (centres unmarked) [RU-0050393] | 26 to 50 | 26 to 50 |  |  |  | 
CSc1nc(NC(C)C)nc(NC(C)C)n1 [RU-T2] |  |  | < 4.70 | 4.70 to 5.70 |  | 
O=C(CCC1CCN(C(=O)c2cccc(-n3cccn3)c2)CC1)Nc1ccccc1 [RU-0032465] | 51 to 74 | < 25 |  |  | < 6.00 | 
C=CCN(Cc1nccn1Cc1ccc(Cl)c(Cl)c1)C(=O)c1ccccc1F [RU-0047955] | 26 to 50 | < 25 |  |  |  | 
C=CCN(Cc1nccn1Cc1ccccc1F)C(=O)C1CCCC1 [RU-0058964] | 51 to 74 | 51 to 74 |  |  | < 6.00 | < 6.00
c1ccc(CNc2nc(NCc3ccco3)nc(N3CCOCC3)n2)cc1 [RU-0020050] | 51 to 74 | 26 to 50 |  |  | > 7.00 | 
CCNc1nc(NCC)nc(SC)n1 [RU-T4] |  |  | < 4.70 | 4.30 to 4.70 |  | 
Cc1cccc(NC(=O)CCC2CCN(C(=O)CCOc3ccccc3)CC2)c1 [RU-0030324] | 51 to 74 | 26 to 50 |  |  | > 7.00 | 
COc1ccc(OCC(=O)N2CCOC(Cc3ccccc3)C2)cc1 (centres unmarked) [RU-0050384] | 26 to 50 | < 25 |  |  |  | 
CCN(CC)c1onc(-c2ccccc2)c1CN(CC1CCCO1)C(=O)c1ccc2c(c1)OCO2 (centres unmarked) [RU-0036875] | 51 to 74 | 51 to 74 |  |  | < 6.00 | < 6.00
CC(C)N(Cc1nccn1Cc1c(F)cccc1Cl)C(=O)c1ccc(Cl)cc1 [RU-0055364] | 26 to 50 | < 25 |  |  |  | 
COCCCN(Cc1c(-c2ccccc2)noc1N(C)C(C)C)C(=O)c1ccccc1OC [RU-0037003] | < 25 | 26 to 50 |  |  |  | 
Cc1ccccc1C(=O)N[C@@H]1CCCCC1NC(=O)C1CCN(C(=O)c2ccc(C(C)(C)C)cc2)CC1 (some centres unmarked) [RU-0045678] | 26 to 50 | 26 to 50 |  |  |  | 
COc1cccc(NC(=O)CCC2CCN(C(=O)CSc3ccccc3)CC2)c1 [RU-0032474] | 51 to 74 | < 25 |  |  | < 6.00 | 
Cc1cc(N(C)C2CCCCC2)nc(SCc2cccc(C(=O)N3CCCC3)c2)n1 [RU-0034108] | 26 to 50 | < 25 |  |  | < 6.00 | 
C=CCN(Cc1nccn1Cc1ccccc1C)C(=O)CC(C)C [RU-0058298] | 51 to 74 | 26 to 50 |  |  | < 6.00 | 
COc1ccccc1CC(=O)N1CCOC(COc2ccc(C)cc2)C1 (centres unmarked) [RU-0050390] | 26 to 50 | < 25 |  |  |  | 
Cc1ccc(-c2nnc(SCCCC(=O)N3CCN(C(=O)c4cccc(F)c4)C(C)C3)n2-c2ccc(C)cc2)cc1 (centres unmarked) [RU-0071789] | 26 to 50 | 26 to 50 |  |  |  | 
COCCCN(Cc1c(-c2ccccc2)noc1N1CCCC1)C(=O)c1ccc(F)cc1 [RU-0037386] | 51 to 74 | 26 to 50 |  |  | < 6.00 | 
Cc1ccccc1C(=O)N[C@@H]1CCCCC1NC(=O)C1CCN(C(=O)c2cc(C(F)(F)F)cc(C(F)(F)F)c2)CC1 (some centres unmarked) [RU-0045778] | 26 to 50 | 26 to 50 |  |  |  | 
Cc1cc(C)c(Cn2ccnc2CN(C(=O)c2ccccc2F)C(C)C)c(C)c1 [RU-0048001] | 51 to 74 | < 25 |  |  | < 6.00 | 
C=CCN(Cc1nccn1Cc1cccc(F)c1)C(=O)c1ccccc1F [RU-I1] |  |  | < 4.70 | 4.30 to 4.70 |  | 
CCn1c(C)c(C(=O)CN(CC2CCCO2)C(=O)C2C[C@H]2c2ccccc2)c(C)c1C(=O)OC (some centres unmarked) [RU-0071273] | 26 to 50 | 26 to 50 |  |  | < 6.00 | 
Cc1nn(-c2ccc(Cl)cc2)c(C)c1C(=O)NCc1ccccn1 [RU-0048608] | 26 to 50 | < 25 |  |  |  | 
Fc1cccc(Cl)c1Cn1ccnc1CN(CC1CCCC1)C1CC1 [RU-I4] |  |  | < 4.70 | < 4.70 |  | 
COc1ccccc1CCC(=O)N1CCC(CCC(=O)Nc2ccccc2)CC1 [RU-0032455] | 51 to 74 | 26 to 50 |  |  | < 6.00 | 
CCN(C)c1onc(-c2ccccc2)c1CN(CCCOC)C(=O)c1ccco1 [RU-0051926] | 26 to 50 | 51 to 74 |  |  |  | 6.00 to 7.00
CC(=O)OCC(=O)NCC1Cc2cc(Oc3ccccc3)ccc2O1 (centres unmarked) [RU-0079120] | 51 to 74 | 26 to 50 |  |  | > 7.00 | 
O=C(C1CCC1)N(Cc1ccco1)Cc1nccn1Cc1ccccc1Cl [RU-0048066] | 26 to 50 | < 25 |  |  |  | 

— patent US20130324522A1, “INSECT ODORANT RECEPTOR ANTAGONISTS” (THE ROCKEFELLER UNIVERSITY, priority 2010, published 2013)
